± gives the standard deviation of the averaged measurements.
Experiments:
Conditions in all cases: 72 h
BV-173 [1] = tested on: BV-173
Summary of the method: (§1)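 Fifteen myeloid leukaemia cell lines were seeded in RPMI 1640 at a density titrated to the linear growth range. Each line went into 384-well plates with compounds acoustically pre-printed at five tenfold doses from 1 to 10,000 nM, in duplicate, and was incubated for 72 h at 37 °C with 5% CO2. Luminescent ATP viability was normalised to vehicle and to a positive control at 10 µM. The IC50 came from four-parameter log-logistic dose–response fits.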

HEL [2] = tested on: HEL
Summary of the method: as §1

HL-60 [3] = tested on: HL-60
Summary of the method: as §1

K-562 [4] = tested on: K-562
Summary of the method: as §1

KCL-22 [5] = tested on: KCL-22
Summary of the method: as §1

KG-1 = tested on: KG-1
Summary of the method: as §1

KU-812 [6] = tested on: KU-812
Summary of the method: as §1

LAMA-84 [7] = tested on: LAMA-84
Summary of the method: as §1

ML-2 [8] = tested on: ML-2
Summary of the method: as §1

MOLM-13 = tested on: MOLM-13
Summary of the method: as §1

MV4-11 = tested on: MV4-11
Summary of the method: as §1

Mono-Mac-6 [9] = tested on: Mono-Mac-6
Summary of the method: as §1

NOMO-1 [10] = tested on: NOMO-1
Summary of the method: as §1

SHI-1 [11] = tested on: SHI-1
Summary of the method: as §1

THP-1 = tested on: THP-1
Summary of the method: as §1

HL-60 [12] = experiment: cell viability (% survival relative to DMSO control); higher = less cytotoxic
Summary of the method: (§2)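 A rescreen of the full library used HL-60 cells in RPMI 1640 with 10% FBS on 384-well plates, run in duplicate at five tenfold concentrations (1–10,000 nM). Each screen included DMSO or 100 nM of one of three metabolic inhibitors and ran 72 h at 37 °C, 5% CO2. CellTiter-Glo viability was scaled between DMSO and 10 μM proteasome-inhibitor wells. Any area under the curve comes from four-parameter log-logistic fits with drc and PharmacoGx.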

BV-173 [13] = experiment: cell viability (% survival relative to DMSO control, bortezomib = 0%); higher = less cytotoxic
Summary of the method: (§3)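 Seeding density for each of the 10 AML and 5 CML cell lines was titrated to the linear growth range. Cells went into 384-well plates pre-printed in duplicate with compounds at 1, 10, 100, 1000 or 10000 nM and were held for 72 h at 37 °C with 5% CO2. CellTiter-Glo luminescence then provided the readout. Percent survival is expressed relative to vehicle at 100% and a 10 µM positive control at 0%, averaged over duplicates.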

HEL [14] = experiment: as above
Summary of the method: as §3

HL-60 [15] = experiment: as above
Summary of the method: as §3

K-562 [16] = experiment: as above
Summary of the method: as §3

KCL-22 [17] = experiment: as above
Summary of the method: as §3

KU-812 [18] = experiment: as above
Summary of the method: as §3

LAMA-84 [19] = experiment: as above
Summary of the method: as §3

ML-2 [20] = experiment: as above
Summary of the method: as §3

Mono-Mac-6 [21] = experiment: as above
Summary of the method: as §3

NOMO-1 [22] = experiment: as above
Summary of the method: as §3

SHI-1 [23] = experiment: as above
Summary of the method: as §3

HL-60 [24] = experiment: area under dose-response curve (viability, 1 nM-10 uM) (fraction (0-1)); higher = more sensitive
Summary of the method: as §2

CC(C)c1cc2c(c(O)c1O)[C@@]1(C(=O)O)CCCC(C)(C)[C@@H]1CC2 [Carnosic acid]
Conditions | IC50 (cell viability) [µM]
BV-173 [1] | 5.01
HEL [2] | > 10
HL-60 [3] | > 10
K-562 [4] | > 10
KCL-22 [5] | > 10
KG-1 | > 10
KU-812 [6] | > 10
LAMA-84 [7] | > 10
ML-2 [8] | > 10
MOLM-13 | > 10
MV4-11 | > 10
Mono-Mac-6 [9] | > 10
NOMO-1 [10] | > 10
SHI-1 [11] | > 10
THP-1 | > 10

cell viability [%], HL-60 [12]
Conditions | 0.001 µM | 0.01 µM | 0.1 µM | 1 µM | 10 µM
co-treatment: AZD3965 100 nM | 98.3 ± 1.3 | 101 ± 5.2 | 117 ± 20 | 98.58 ± 0.66 | 100 ± 1.1
co-treatment: DMSO vehicle | 96.16 ± 0.17 | 100.2 ± 0.6 | 99.2 ± 2.8 | 97.53 ± 0.66 | 103 ± 2.5
co-treatment: GSK2194069 100 nM | 101 ± 5.3 | 89.4 ± 19 | 105 ± 5.3 | 99.3 ± 2.7 | 95.3 ± 2.3
co-treatment: pictilisib 100 nM | 93.2 ± 7.5 | 102 ± 2.3 | 97.6 ± 10 | 96.1 ± 1.2 | 116 ± 11

Conditions | area under dose-response curve, co-treatment: AZD3965 100 nM | area under dose-response curve, co-treatment: DMSO vehicle | area under dose-response curve, co-treatment: GSK2194069 100 nM | area under dose-response curve, co-treatment: pictilisib 100 nM | cell viability, 1 nM [%] | cell viability, 10 nM [%] | cell viability, 100 nM [%] | cell viability, 1000 nM [%] | cell viability, 10000 nM [%]
BV-173 [13] | – | – | – | – | 87.5 | 96.7 | 98.2 | 82.6 | 43.8
HEL [14] | – | – | – | – | 100 | 112 | 92.1 | 100 | 97.4
HL-60 [15] | – | – | – | – | 99.7 | 97.3 | 89.3 | 91.5 | 109
HL-60 [24] | < 0.0301 | < 0.0301 | < 0.0301 | < 0.0301 | – | – | – | – | –
K-562 [16] | – | – | – | – | 105 | 93.4 | 89.4 | 87.4 | 83.2
KCL-22 [17] | – | – | – | – | 101 | 104 | 73.1 | 103 | 90.7
KU-812 [18] | – | – | – | – | 94.3 | 100 | 89.4 | 92.6 | 74.1
LAMA-84 [19] | – | – | – | – | 97.7 | 98 | 102 | 91.1 | 96.6
ML-2 [20] | – | – | – | – | 93.4 | 105 | 85.9 | 94.5 | 67.6
Mono-Mac-6 [21] | – | – | – | – | 92.7 | 102 | 103 | 90.4 | 64.3
NOMO-1 [22] | – | – | – | – | 96.5 | 100 | 96.9 | 99 | 102
SHI-1 [23] | – | – | – | – | 101 | 112 | 95 | 112 | 108

CCN(CC)CCCC(C)Nc1ccnc2cc(Cl)ccc12 (configuration not stated) [Chloroquine]
Conditions | IC50 (cell viability) [µM]
BV-173 [1] | > 10
HEL [2] | > 10
HL-60 [3] | > 10
K-562 [4] | > 10
KCL-22 [5] | > 10
KG-1 | > 10
KU-812 [6] | > 10
LAMA-84 [7] | > 10
ML-2 [8] | > 10
MOLM-13 | > 10
MV4-11 | > 10
Mono-Mac-6 [9] | > 10
NOMO-1 [10] | > 10
SHI-1 [11] | > 10
THP-1 | > 10

cell viability [%], HL-60 [12]
Conditions | 0.001 µM | 0.01 µM | 0.1 µM | 1 µM | 10 µM
co-treatment: AZD3965 100 nM | 102 ± 1.2 | 87.5 ± 17 | 107.4 ± 0.11 | 104 ± 5.8 | 97.5 ± 7.8
co-treatment: DMSO vehicle | 104 ± 3.9 | 91.3 ± 17 | 102.4 ± 0.66 | 106 ± 4.4 | 99.7 ± 1.6
co-treatment: GSK2194069 100 nM | 102.2 ± 0.76 | 77.2 ± 30 | 98.3 ± 1.5 | 102 ± 5.2 | 89.7 ± 6.5
co-treatment: pictilisib 100 nM | 96.1 ± 2.8 | 67.7 ± 45 | 104 ± 2.7 | 103.8 ± 0.31 | 100 ± 22

Conditions | area under dose-response curve, co-treatment: AZD3965 100 nM | area under dose-response curve, co-treatment: DMSO vehicle | area under dose-response curve, co-treatment: GSK2194069 100 nM | area under dose-response curve, co-treatment: pictilisib 100 nM | cell viability, 1 nM [%] | cell viability, 10 nM [%] | cell viability, 100 nM [%] | cell viability, 1000 nM [%] | cell viability, 10000 nM [%]
BV-173 [13] | – | – | – | – | 111 | 89.5 | 111 | 97.1 | 85.2
HEL [14] | – | – | – | – | 95.4 | 94.5 | 89.6 | 97.6 | 104
HL-60 [15] | – | – | – | – | 101 | 79.8 | 97.1 | 101 | 76.4
HL-60 [24] | < 0.0301 | < 0.0301 | < 0.0301 | < 0.0301 | – | – | – | – | –
K-562 [16] | – | – | – | – | 101 | 111 | 105 | 103 | 86.3
KCL-22 [17] | – | – | – | – | 95.6 | 106 | 100 | 95.7 | 102
KU-812 [18] | – | – | – | – | 109 | 97.8 | 102 | 98.1 | 96.9
LAMA-84 [19] | – | – | – | – | 105 | 101 | 101 | 101 | 99.1
ML-2 [20] | – | – | – | – | 108 | 98.7 | 97 | 100 | 94
Mono-Mac-6 [21] | – | – | – | – | 105 | 94.9 | 104 | 93.4 | 92.1
NOMO-1 [22] | – | – | – | – | 110 | 99.3 | 97.9 | 96.2 | 93.7
SHI-1 [23] | – | – | – | – | 108 | 106 | 96.6 | 89.8 | 92

Nc1nc(Cl)nc2c1ncn2[C@H]1C[C@H](O)[C@@H](CO)O1 [Cladribine]
Conditions | IC50 (cell viability) [µM]
BV-173 [1] | 0.00438
HEL [2] | 0.0335
HL-60 [3] | 0.0471
K-562 [4] | 0.219
KCL-22 [5] | 0.142
KG-1 | 0.384
KU-812 [6] | 0.0989
LAMA-84 [7] | 0.0992
ML-2 [8] | 0.238
MOLM-13 | 0.0253
MV4-11 | 0.0202
Mono-Mac-6 [9] | 0.0212
NOMO-1 [10] | 0.0529
SHI-1 [11] | 0.0439
THP-1 | 0.358

cell viability [%], HL-60 [12]
Conditions | 0.001 µM | 0.01 µM | 0.1 µM | 1 µM | 10 µM
co-treatment: AZD3965 100 nM | 100 ± 2.3 | 104 ± 3.5 | 67.648 ± 0.059 | 3.68 ± 1.7 | 3.27 ± 0.58
co-treatment: DMSO vehicle | 101 ± 3 | 104 ± 1.1 | 88.9 ± 5.8 | 3.39 ± 2.3 | 4.06 ± 0.94
co-treatment: GSK2194069 100 nM | 98.2 ± 5.8 | 101 ± 9.5 | 62.7 ± 7 | 3.78 ± 2 | 4.3 ± 2.3
co-treatment: pictilisib 100 nM | 98.9 ± 5.9 | 102 ± 11 | 37.1 ± 4.7 | 3.81 ± 2.1 | 3.84 ± 2.1

Conditions | area under dose-response curve, co-treatment: AZD3965 100 nM | area under dose-response curve, co-treatment: DMSO vehicle | area under dose-response curve, co-treatment: GSK2194069 100 nM | area under dose-response curve, co-treatment: pictilisib 100 nM | cell viability, 1 nM [%] | cell viability, 10 nM [%] | cell viability, 100 nM [%] | cell viability, 1000 nM [%] | cell viability, 10000 nM [%]
BV-173 [13] | – | – | – | – | 128 | 4.77 | -0.0212 | 0.000225 | -0.197
HEL [14] | – | – | – | – | 105 | 99.2 | 3.91 | 0.404 | 0.141
HL-60 [15] | – | – | – | – | 108 | 88.3 | 26.6 | 1.62 | -0.177
HL-60 [24] | 0.45 | 0.394 | 0.459 | 0.515 | – | – | – | – | –
K-562 [16] | – | – | – | – | 110 | 97.5 | 79.8 | 28.8 | 20.5
KCL-22 [17] | – | – | – | – | 114 | 111 | 68.9 | 15.6 | 7.11
KU-812 [18] | – | – | – | – | 112 | 101 | 53.3 | 16.5 | 5.32
LAMA-84 [19] | – | – | – | – | 112 | 100 | 51.1 | 5.53 | 1.72
ML-2 [20] | – | – | – | – | 117 | 100 | 85.5 | 7.04 | 2.51
Mono-Mac-6 [21] | – | – | – | – | 113 | 82.5 | 1.25 | 0.0892 | -0.125
NOMO-1 [22] | – | – | – | – | 111 | 101 | 21.5 | 1.41 | 0.34
SHI-1 [23] | – | – | – | – | 87.7 | 88.7 | 13.6 | 0.494 | -0.0158
